The assay has as its system P388 leukemia ip, CD2F1 mice, survival T/C. Briefly: NCI In Vivo Anticancer Drug Screen. Data for tumor model P388 Leukemia (intraperitoneal) in CD2F1 (CDF1) mice. The following applies: endpoint: median survival time, higher = longer survival. An outline of the steps:
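Mice carrying the transplanted tumor received test compound or vehicle. Survival was recorded in each group, and the value is the treated-group measurement divided by that of the vehicle-treated control group.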

The mark [1] stands for this setting: dose: 25.0 mg/kg/injection, schedule: Q01DX005 (ip), vehicle: Klucel (hydroxypropylcellulose) (HPC).
Where [2] appears, read: dose: 50.0 mg/kg/injection, schedule: Q01DX005 (ip), vehicle: Klucel (hydroxypropylcellulose) (HPC).
Where [3] appears, read: dose: 100.0 mg/kg/injection, schedule: Q01DX005 (ip), vehicle: Klucel (hydroxypropylcellulose) (HPC).
Setting [4] is: dose: 60.0 mg/kg/injection, schedule: Q01DX005 (ip), vehicle: saline with Tween-80.
[5] abbreviates: dose: 120.0 mg/kg/injection, schedule: Q01DX005 (ip), vehicle: saline with Tween-80.
[6] abbreviates: dose: 240.0 mg/kg/injection, schedule: Q01DX005 (ip), vehicle: saline with Tween-80.
[7] abbreviates: dose: 200.0 mg/kg/injection, schedule: Q01DX005 (ip), vehicle: Klucel (hydroxypropylcellulose) (HPC).
The mark [8] stands for this setting: dose: 50.0 mg/kg/injection, schedule: Q01DX009 (ip), vehicle: suspension in saline.
Setting [9] is: dose: 100.0 mg/kg/injection, schedule: Q01DX009 (ip), vehicle: suspension in saline.
[10] abbreviates: dose: 200.0 mg/kg/injection, schedule: Q01DX009 (ip), vehicle: suspension in saline.
The mark [11] stands for this setting: dose: 100.0 mg/kg/injection, schedule: Q01DX009 (ip), vehicle: saline.

“And” between values parts separate entries of the source, which are not always exact repeats. Equal values may be shown once. Toxic doses and inconclusive results are not listed.

The values below come from PubChem BioAssay AID330 (DTP/NCI, 2004).

Take `Cc1c(N=Nc2cccc(Cl)c2Cl)c(-c2ccccc2)nn1C(N)=S`: the T/C under setting [1] is 94 % of control, the T/C under setting [2] is 99 % of control and the T/C under setting [3] was 96 % of control.
The matching figures for `CC(C)(C)OC(=O)N/N=C\c1ccnc2ccccc12`: 93 % of control, 96 % of control and 93 % of control.
Take `Oc1ccc(Nc2ccnc3cc(Cl)ccc23)cc1CN(CCCl)CCCl`: the T/C is 119 % of control (dose: 0.16 mg/kg/injection, schedule: Q01DX009 (ip), vehicle: saline); 123 % of control (dose: 0.31 mg/kg/injection, schedule: Q01DX009 (ip), vehicle: saline); 150 % of control (dose: 0.63 mg/kg/injection, schedule: Q01DX009 (ip), vehicle: saline); 101 % of control (dose: 1.25 mg/kg/injection, schedule: Q01DX009 (ip), vehicle: saline); 153 % of control and 156 % of control (dose: 2.5 mg/kg/injection, schedule: Q01DX009 (ip), vehicle: saline).
On to `O=C(O)c1cc2c([nH]1)-c1cccnc1C(=O)C2=O`, for which the T/C runs as follows: under setting [4], 101 % of control; under setting [5], 105 % of control; under setting [6], 101 % of control.
For `CCN(CC)c1ccc(/C=C2/C=Cc3ccccc32)cc1`, the T/C is, setting by setting: (dose: 100.0 mg/kg/injection, schedule: Q01DX009 (ip), vehicle: saline with Tween-80) 105 % of control; (dose: 200.0 mg/kg/injection, schedule: Q01DX009 (ip), vehicle: saline with Tween-80) 100 % of control; (dose: 400.0 mg/kg/injection, schedule: Q01DX009 (ip), vehicle: saline with Tween-80) 95 % of control.
Regarding `O=C1c2ccccc2C(=O)N1C1Nc2ccccc2N1`, the T/C is 99 % of control under setting [4], 99 % of control under setting [5] and 96 % of control under setting [6].
Consider `NCCn1c(-c2ccccc2)nc2ccccc2c1=O`, for which the T/C by setting is: under setting [2], 100 % of control; under setting [3], 97 % of control; under setting [7], 109 % of control.
With `O=c1[nH]c(=S)[nH]cc1-c1ccc(Cl)c(Cl)c1`, the T/C was 105 % of control under setting [8], 104 % of control under setting [9] and 106 % of control under setting [10].
Turning to `CCOC(=O)Nc1cc(NC(C)CCCN(CC)CC)c2ncc(-c3cc(OC)c(OC)c(OC)c3)nc2n1` (configuration not stated) (tested in a mixture with another compound), the T/C reads like this: (dose: 66.0 mg/kg/injection, schedule: Q01DX009 (ip), vehicle: saline) 118 % of control; under setting [11], 109 % of control; (dose: 150.0 mg/kg/injection, schedule: Q01DX009 (ip), vehicle: saline) 104 % of control.
Consider `CSCC(N)CO` (configuration not stated), for which the T/C runs as follows: (dose: 50.0 mg/kg/injection, schedule: Q01DX009 (ip), vehicle: saline) 110 % of control; under setting [11], 105 % of control; (dose: 200.0 mg/kg/injection, schedule: Q01DX009 (ip), vehicle: saline) 101 % of control.
Regarding `CC(c1ccc(Cl)cc1)N(CCN(C)C)c1ccccn1` (configuration not stated), the T/C was 103 % of control (dose: 15.0 mg/kg/injection, schedule: Q01DX005 (ip), vehicle: Klucel (hydroxypropylcellulose) (HPC)); 104 % of control (dose: 30.0 mg/kg/injection, schedule: Q01DX005 (ip), vehicle: Klucel (hydroxypropylcellulose) (HPC)); 111 % of control and 95 % of control (dose: 60.0 mg/kg/injection, schedule: Q01DX005 (ip), vehicle: Klucel (hydroxypropylcellulose) (HPC)).
Take `CCOC(=O)c1cnc(NCCCNc2ncc(C(=O)OCC)c(=O)[nH]2)[nH]c1=O`: the T/C by setting is: (dose: 6.25 mg/kg/injection, schedule: Q01DX005 (ip), vehicle: Klucel (hydroxypropylcellulose) (HPC)) 92 % of control; (dose: 12.5 mg/kg/injection, schedule: Q01DX005 (ip), vehicle: Klucel (hydroxypropylcellulose) (HPC)) 101 % of control; under setting [1], 104 % of control; under setting [2], 105 % of control; under setting [3], 106 % of control; under setting [7], 88 % of control.
As for `COC1=C(Br)C(O)C2(C=C1Br)CC(C(=O)NCC(O)COc1c(Br)cc(C(O)CNC(=O)C3=NOC4(C=C(Br)C(OC)=C(Br)C4O)C3)cc1Br)=NO2` (configuration not stated), the T/C (dose: 25.0 mg/kg/injection, schedule: Q01DX009 (ip), vehicle: saline + Tween-80 + alcohol) is 110 % of control; the T/C (dose: 50.0 mg/kg/injection, schedule: Q01DX009 (ip), vehicle: saline + Tween-80 + alcohol) is 112 % of control and 92 % of control; the T/C (dose: 100.0 mg/kg/injection, schedule: Q01DX009 (ip), vehicle: saline + Tween-80 + alcohol) was 112 % of control and 92 % of control; the T/C (dose: 200.0 mg/kg/injection, schedule: Q01DX009 (ip), vehicle: saline + Tween-80 + alcohol) is 102 % of control.
Consider `O=S(=O)(Nc1cccnc1)c1ccccc1`, for which the T/C under setting [4] was 106 % of control, the T/C under setting [5] was 100 % of control and the T/C under setting [6] was 105 % of control.
Regarding `CC1=NN(C(=O)c2cccnc2)C(=O)C1N=Nc1ccc(S(=O)(=O)Nc2nccs2)cc1` (configuration not stated), the T/C is 101 % of control (dose: 100.0 mg/kg/injection, schedule: Q04DX003 (ip), vehicle: saline with Tween-80); 99 % of control (dose: 200.0 mg/kg/injection, schedule: Q04DX003 (ip), vehicle: saline with Tween-80); 95 % of control (dose: 400.0 mg/kg/injection, schedule: Q04DX003 (ip), vehicle: saline with Tween-80).
Turning to `CC(C)(C#N)NCCCCCCNC(C)(C)C#N`, the T/C was 96 % of control under setting [2], 93 % of control under setting [3] and 100 % of control under setting [7].
For the compound `Nc1nc(N)nc(-c2ccccc2)n1`, the T/C under setting [8] is 106 % of control, the T/C under setting [9] is 99 % of control and the T/C under setting [10] is 106 % of control.
`COc1cc(C(Nc2ncccn2)c2cc3c(cc2O)OCO3)cc(OC)c1O` (configuration not stated): the T/C was 105 % of control under setting [4], 90 % of control under setting [5] and 90 % of control under setting [6].
With `c1ccc(-c2cc3cc4c(cc3[nH]2)Oc2ccccc2O4)cc1`, the T/C by setting is: (dose: 17.5 mg/kg/injection, schedule: Q01DX009 (ip), vehicle: Klucel (hydroxypropylcellulose) (HPC)) 100 % of control and 103 % of control and 109 % of control; (dose: 35.0 mg/kg/injection, schedule: Q01DX009 (ip), vehicle: Klucel (hydroxypropylcellulose) (HPC)) 100 % of control (2×) and 105 % of control; (dose: 70.0 mg/kg/injection, schedule: Q01DX009 (ip), vehicle: Klucel (hydroxypropylcellulose) (HPC)) 100 % of control and 103 % of control and 122 % of control; (dose: 140.0 mg/kg/injection, schedule: Q01DX009 (ip), vehicle: Klucel (hydroxypropylcellulose) (HPC)) 100 % of control.
On to `COC(=O)C12OCC34C(OC(=O)C(OC(=O)C=C(C)C)C13)C(OC(C)=O)C1C(C)=CC(=O)CC1(C)C4C(O)C2O` (configuration not stated) (tested in a mixture with another compound), for which the T/C was 96 % of control (dose: 13.0 micrograms/kg/injection, schedule: Q01DX009 (ip), vehicle: saline + alcohol); 97 % of control (dose: 25.0 micrograms/kg/injection, schedule: Q01DX009 (ip), vehicle: saline + alcohol); 100 % of control (dose: 50.0 micrograms/kg/injection, schedule: Q01DX009 (ip), vehicle: saline + alcohol); 101 % of control (dose: 100.0 micrograms/kg/injection, schedule: Q01DX009 (ip), vehicle: saline + alcohol); 102 % of control (dose: 190.0 micrograms/kg/injection, schedule: Q01DX009 (ip), vehicle: saline + alcohol); 102 % of control (dose: 380.0 micrograms/kg/injection, schedule: Q01DX009 (ip), vehicle: saline + alcohol). Further, the T/C (dose: 750.0 micrograms/kg/injection, schedule: Q01DX009 (ip), vehicle: saline + alcohol) was 106 % of control.
As to `O=c1c2cc(Cl)cc(Cl)c2nc2n1S(=O)(=O)c1ccccc1N2c1ccccc1`, the T/C reads like this: (dose: 100.0 mg/kg/injection, schedule: Q01DX001 (ip), vehicle: saline with Tween-80) 94 % of control; (dose: 200.0 mg/kg/injection, schedule: Q01DX001 (ip), vehicle: saline with Tween-80) 91 % of control; (dose: 400.0 mg/kg/injection, schedule: Q01DX001 (ip), vehicle: saline with Tween-80) 95 % of control.
For `CCCCCCCCCCCCCC[n+]1ccc(C(N)=O)cc1`, the T/C runs as follows: (dose: 6.25 mg/kg/injection, schedule: Q01DX009 (ip), vehicle: saline with Tween-80) 113 % of control; (dose: 12.5 mg/kg/injection, schedule: Q01DX009 (ip), vehicle: saline with Tween-80) 109 % of control; (dose: 25.0 mg/kg/injection, schedule: Q01DX009 (ip), vehicle: saline with Tween-80) 100 % of control.
